Results on twelve compounds are retold here after patent US8633205B2, “Substituted pyrrolo[2,3-d]pyrimidines as inhibitors of protein kinases” (Vertex Pharmaceuticals Incorporated, priority 2005, dated 2014).

Holding throughout (format): biochemical
One experiment has as its target JAK2 (Homo sapiens, UniProt O60674). Put plainly: JAK2 Inhibition Assay. The conditions noted are these: 15 μM poly(Glu)4Tyr, 12 μM ATP; read-out: JAK2 enzyme inhibition (Ki). The procedure: (§1) Compounds were screened for their ability to inhibit JAK using the […] below. Reactions were carried out in a kinase buffer containing 100 mM HEPES (pH 7.4), 1 mM DTT, 10 mM MgCl2, 25 mM NaCl, and 0.01% BSA.
(§2) Substrate concentrations in the assay were 5 μM ATP (200 uCi/μmole ATP) 1 μM poly(Glu)4Tyr. Reactions were carried out at 25 ° C. and 1 nM JAK3.
(§3) To each well of a 96 well polycarbonate plate was added 1.5 μl of a JAK3 inhibitor along with 50 μl of kinase buffer containing 2 μM poly(Glu)4Tyr and 10 μM ATP. This was then mixed and 50 μl of kinase buffer 2 nM JAK3 enzyme was added to start the reaction. After 20 minutes at room temperature (25C), the reaction was stopped with 50 μl of 20% trichloroacetic acid (TCA) that also contained 0.4 mM ATP. The entire contents of each well were then transferred to a 96 well glass fiber filter plate using a TomTek Cell Harvester. After washing, 60 μl of scintillation fluid was added and ^33P incorporation detected on a Perkin Elmer TopCount.
As described above in Example 11 except that JAK-2 enzyme is used, the final poly(Glu)4Tyr concentration is 15 μM, and final ATP concentration is 12 μM.

The target in another experiment is T1, JAK3 (Homo sapiens, UniProt P52333).
T1 sequence (P52333 1-1124): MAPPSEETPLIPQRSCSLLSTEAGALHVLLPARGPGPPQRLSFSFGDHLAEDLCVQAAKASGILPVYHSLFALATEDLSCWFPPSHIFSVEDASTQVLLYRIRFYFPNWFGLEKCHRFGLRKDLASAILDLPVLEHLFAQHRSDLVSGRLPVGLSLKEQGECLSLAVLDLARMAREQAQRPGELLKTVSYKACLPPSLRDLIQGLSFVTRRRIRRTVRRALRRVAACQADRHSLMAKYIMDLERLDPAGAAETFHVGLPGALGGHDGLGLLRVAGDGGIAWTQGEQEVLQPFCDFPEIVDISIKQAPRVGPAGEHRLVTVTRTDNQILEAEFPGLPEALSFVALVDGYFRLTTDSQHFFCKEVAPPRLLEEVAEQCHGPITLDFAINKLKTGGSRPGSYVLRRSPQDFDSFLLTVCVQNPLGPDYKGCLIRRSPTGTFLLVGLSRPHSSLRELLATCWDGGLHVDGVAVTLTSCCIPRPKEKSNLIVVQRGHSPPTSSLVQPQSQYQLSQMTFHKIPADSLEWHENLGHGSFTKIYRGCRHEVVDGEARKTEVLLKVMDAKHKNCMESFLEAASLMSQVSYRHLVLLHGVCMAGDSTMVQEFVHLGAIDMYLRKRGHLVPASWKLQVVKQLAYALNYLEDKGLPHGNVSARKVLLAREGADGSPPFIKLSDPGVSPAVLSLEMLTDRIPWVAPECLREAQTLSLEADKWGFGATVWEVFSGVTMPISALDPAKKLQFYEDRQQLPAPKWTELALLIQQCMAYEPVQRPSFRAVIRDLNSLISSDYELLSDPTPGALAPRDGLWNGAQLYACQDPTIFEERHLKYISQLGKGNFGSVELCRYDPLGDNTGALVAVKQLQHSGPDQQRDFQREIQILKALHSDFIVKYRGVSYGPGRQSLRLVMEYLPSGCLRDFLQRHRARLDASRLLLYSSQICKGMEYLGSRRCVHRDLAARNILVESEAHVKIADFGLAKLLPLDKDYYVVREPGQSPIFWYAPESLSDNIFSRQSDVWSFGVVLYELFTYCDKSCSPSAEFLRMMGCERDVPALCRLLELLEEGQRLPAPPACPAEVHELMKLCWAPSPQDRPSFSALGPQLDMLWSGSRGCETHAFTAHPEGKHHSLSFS
Put plainly: JAK3 Inhibition Assay. The note with it: 1 μM poly(Glu)4Tyr, 5 μM ATP, 1 nM JAK3, 25 °C; read-out: JAK3 enzyme inhibition (Ki). The procedure: as §1, §2, §3

The target of a further experiment is PKA (Homo sapiens, UniProt P17612). In words: PKA Inhibition Assay (coupled enzyme assay). The conditions noted are these: 50 μM ATP, 80 μM Kemptide, 18 nM PKA, 30 °C. The protocol:
Compounds were screened for their ability to inhibit PKA using a standard coupled enzyme assay (Fox et al., Protein Sci, 1998, 7, 2249). Assays were carried out in a mixture of 100 mM HEPES (pH 7.5), 10 mM MgCl2, 25 mM NaCl, 1 mM DTT and 3% DMSO. Final substrate concentrations in the assay were 50 μM ATP (Sigma Chemicals) and 80 μM peptide (Kemptide, American Peptide, Sunnyvale, Calif.). Assays were carried out at 30 ° C. and 18 nM PKA. Final concentrations of the components of the coupled enzyme system were 2.5 mM phosphoenolpyruvate, 300 μM NADH, 30 μg/ml pyruvate kinase and 10 μg/ml lactate dehydrogenase.
An assay stock buffer solution was prepared containing all of the reagents listed above, with the exception of ATP, and the test compound of the present invention. 55 μl of the stock solution was placed in a 96 well plate followed by addition of 2 μl of DMSO stock containing serial dilutions of the test compound of the present invention (typically starting from a final concentration of 5 μM). The plate was preincubated for 10 minutes at 30° C. and the reaction initiated by addition of 5 μl of ATP (final concentration 50 μM). Initial reaction rates were determined with a Molecular Devices SpectraMax Plus plate reader over a 15 minute time course. IC50 and Ki data were calculated from non-linear regression analysis using the Prism software package (GraphPad Prism version 3.0a for Macintosh, GraphPad Software, San Diego, Calif., USA).

The target in the next experiment is T2, ROCK (Homo sapiens, UniProt Q13464).
T2 construct: ROCK I (AA 6-553)
T2 sequence (Q13464 6-553): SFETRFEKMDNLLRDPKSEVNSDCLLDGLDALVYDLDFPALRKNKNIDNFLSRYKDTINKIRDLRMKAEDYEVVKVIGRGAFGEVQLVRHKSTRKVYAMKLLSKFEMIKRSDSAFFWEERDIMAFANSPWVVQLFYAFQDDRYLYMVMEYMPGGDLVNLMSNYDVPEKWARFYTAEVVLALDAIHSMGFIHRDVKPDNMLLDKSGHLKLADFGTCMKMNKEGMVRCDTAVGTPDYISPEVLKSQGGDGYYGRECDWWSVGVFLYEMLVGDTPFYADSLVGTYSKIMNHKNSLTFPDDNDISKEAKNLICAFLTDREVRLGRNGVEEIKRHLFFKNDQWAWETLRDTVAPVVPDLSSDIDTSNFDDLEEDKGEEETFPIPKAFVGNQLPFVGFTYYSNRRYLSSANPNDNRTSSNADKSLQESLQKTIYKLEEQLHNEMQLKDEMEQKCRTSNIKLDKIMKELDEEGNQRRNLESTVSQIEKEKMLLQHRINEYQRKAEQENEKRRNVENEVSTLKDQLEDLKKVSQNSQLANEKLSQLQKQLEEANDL
Put plainly: ROCK Inhibition Assays. The note with it: read-out: ROCK enzyme inhibition (Ki). The protocol:
Compounds are screened for their ability to inhibit ROCK I (AA 6-553) activity using a standard coupled enzyme system (Fox et al. Protein Sci. 7: 2249, 1998). Reactions are carried out in a solution containing 100 mM HEPES (pH 7.5), 10 mM MgCl2, 25 mM NaCl, 2 mM DTT and 1.5% DMSO. Final substrate concentrations in the assay are 45 μM ATP (Sigma Chemicals, St Louis, Mo.) and 200 μM peptide (American Peptide, Sunnyvale, Calif.). Reactions are carried out at 30 ° C. and 45 nM ROCK I. Final concentrations of the components of the coupled enzyme system are 2.5 mM phosphoenolpyruvate, 350 μM NADH, 30 μg/ml pyruvate kinase and 10 μg/ml lactate dehydrogenase.
Compounds are screened for their ability to inhibit ROCK using a standard radioactive enzyme assay. Assays are carried out in a solution containing 100 mM HEPES (pH 7.5), 10 mM MgCl2, 25 mM NaCl, 2 mM DTT and 1.5% DMSO. Final substrate concentrations in the assay are 13 μM [γ-^33P] ATP (25 mCi ^33P ATP/mmol ATP, Perkin Elmer, Cambridge, Mass./Sigma Chemicals, St Louis, Mo.) and 27 μM Myelin Basic Protein (MBP). Final enzyme concentration in the assay is 5 nM ROCK. Assays are carried out at room temperature. 1.5 μl of DMSO stock containing serial dilutions of the compound of the present invention (concentrations ranging from 10 μM to 2.6 nM) is placed in a 96 well plate. 50 μl of Solution 1 (100 mM HEPES (pH 7.5), 10 mM MgCl2, […] [γ-^33P] ATP) is added to the plate. The reaction is initiated by addition of 50 μl of Solution 2 (100 mM HEPES (pH 7.5), 10 mM MgCl2, 4 mM DTT, […] and 10 nM ROCK). After 2 hours the reaction is quenched with 50 μL of 30% trichloroacetic acid (TCA, Fisher) containing 9 mM ATP. Transfer of 140 μL of the quenched reaction to a glass fiber filter plate (Corning, Cat. No.3511) is followed by washing 3 times with 5% TCA. 50 μL of Optima Gold scintillation fluid (Perkin Elmer) is added and the plates are counted on a Top Count (Perkin Elmer). After removing mean background values for all of the data points the data is fit using Prism software to obtain a Ki(app).

A value given as a limit tells only on which side of the number the result lay.

Sequence of JAK2 (O60674 whole entry): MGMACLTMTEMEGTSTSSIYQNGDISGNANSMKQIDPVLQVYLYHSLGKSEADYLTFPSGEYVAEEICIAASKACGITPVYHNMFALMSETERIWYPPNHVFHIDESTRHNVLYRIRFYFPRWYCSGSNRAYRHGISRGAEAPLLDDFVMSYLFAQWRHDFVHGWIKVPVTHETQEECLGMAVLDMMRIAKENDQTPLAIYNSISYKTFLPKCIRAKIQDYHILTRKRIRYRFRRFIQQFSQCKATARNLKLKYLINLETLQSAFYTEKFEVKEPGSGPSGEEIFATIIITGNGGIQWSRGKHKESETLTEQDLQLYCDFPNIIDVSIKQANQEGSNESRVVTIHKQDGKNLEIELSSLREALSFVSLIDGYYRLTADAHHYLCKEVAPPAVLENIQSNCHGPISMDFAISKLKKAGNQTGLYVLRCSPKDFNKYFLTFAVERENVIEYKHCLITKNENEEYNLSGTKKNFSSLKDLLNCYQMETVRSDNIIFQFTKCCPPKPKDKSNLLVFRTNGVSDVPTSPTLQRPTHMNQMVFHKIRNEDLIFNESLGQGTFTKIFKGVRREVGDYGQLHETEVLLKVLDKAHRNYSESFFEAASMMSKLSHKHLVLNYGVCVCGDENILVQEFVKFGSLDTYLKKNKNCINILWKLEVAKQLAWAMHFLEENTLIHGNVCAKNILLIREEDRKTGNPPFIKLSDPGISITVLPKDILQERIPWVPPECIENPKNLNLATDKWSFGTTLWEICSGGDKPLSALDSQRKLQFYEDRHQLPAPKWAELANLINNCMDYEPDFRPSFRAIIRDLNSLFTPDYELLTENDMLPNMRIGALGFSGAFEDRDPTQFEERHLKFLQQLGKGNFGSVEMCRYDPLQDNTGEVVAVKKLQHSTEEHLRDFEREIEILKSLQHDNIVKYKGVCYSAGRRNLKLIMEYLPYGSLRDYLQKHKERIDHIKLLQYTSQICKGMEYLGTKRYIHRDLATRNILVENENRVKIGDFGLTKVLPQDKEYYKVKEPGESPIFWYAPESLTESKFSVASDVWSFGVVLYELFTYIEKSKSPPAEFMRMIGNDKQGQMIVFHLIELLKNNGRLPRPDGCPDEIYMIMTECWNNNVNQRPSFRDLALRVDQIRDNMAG

Regarding `C1=C(c2ncnc3[nH]ccc23)CCCCC1` [Compound 20], the inhibition constant (Ki) at JAK2 is less than 500 nM; on JAK3, less than 500 nM; on PKA, 500 to 5000 nM; at ROCK, 500 to 5000 nM.
Take `C1=C(c2ncnc3[nH]ccc23)C2CCC1C2` (stereo not drawn) [Compound 21]: the Ki at JAK2 was less than 500 nM; on JAK3 it was less than 500 nM; on PKA, 500 to 5000 nM; on ROCK, 500 to 5000 nM.
For the compound `C=C(c1ncnc2[nH]ccc12)C1CCCN(C(=O)OC(C)(C)C)C1` (stereo not drawn) [Compound 22], the inhibitory constant (Ki) on JAK2, at JAK3, on PKA and at ROCK was 500 to 5000 nM in each case.
`CC(c1ccccc1)c1ncnc2[nH]ccc12` (stereo not drawn) [Compound 23]: the Ki on JAK2, at JAK3, at PKA and at ROCK was 500 to 5000 nM each time.
For the compound `COC(=O)C(C)Cc1ncnc2[nH]ccc12` (stereo not drawn) [Compound 24], the Ki is greater than 5000 nM on JAK2, greater than 5000 nM at JAK3, 500 to 5000 nM on PKA and 500 to 5000 nM on ROCK.
As for `CC(C)Cc1ncnc2[nH]ccc12` [Compound 25], the Ki at JAK2, on JAK3, on PKA and on ROCK was 500 to 5000 nM throughout.
Regarding `c1nc(C2CC3CCC2C3)c2cc[nH]c2n1` (stereo not drawn) [Compound 26, 4-Bicyclo[2.2.1]hept-2-yl-7H-pyrrolo[2,3-d]pyrimidine], the Ki is less than 500 nM at JAK2, less than 500 nM at JAK3, 500 to 5000 nM at PKA and 500 to 5000 nM on ROCK.
For `c1nc(CC2CCCCC2)c2cc[nH]c2n1` [Compound 27], the inhibition constant Ki at JAK2 is less than 500 nM; on JAK3, less than 500 nM; at PKA, 500 to 5000 nM; on ROCK it was 500 to 5000 nM.
`N#CCCCCc1ncnc2[nH]ccc12` [Compound 28]: the Ki on JAK2, at JAK3, on PKA and on ROCK was 500 to 5000 nM throughout.
Regarding `c1nc(CCC2OCCCO2)c2cc[nH]c2n1` [Compound 29], the Ki at JAK2, on JAK3, on PKA and on ROCK was 500 to 5000 nM each time.
Regarding `CC(C)(C#N)CCCCc1ncnc2[nH]ccc12` [Compound 30], the Ki on JAK2, on JAK3, at PKA and at ROCK was 500 to 5000 nM in each case.
Turning to `CC(C)CCc1ncnc2[nH]ccc12` [Compound 31], the Ki is less than 500 nM at JAK2, less than 500 nM on JAK3, 500 to 5000 nM at PKA and 500 to 5000 nM at ROCK.
